Data reported in patent publication US9968553B1, “Enalapril compositions” (Silvergate Pharmaceuticals, Inc., priority 2012, dated 2018).

Test: Reconstitution studies in 150 mL Ora-Sweet SF syrup (visual inspection)
Type: physicochemical
Conditions: 150 mL Ora-Sweet SF sugar-free flavored syrup
Description: The scaled-up enalapril and mannitol powder compositions (Enalapril Powder Composition A and the like) were examined in reconstitution studies where 150 mL Ora-Sweet® SF sugar-free flavored syrup was to the powder compositions.
Reconstitution of Neat Enalapril Powder in Bottle: Due to the ‘clouding’ in the reconstitution as well as the uniformity issues in the scale-up studies of Enalapril Powder Composition A, neat enalapril, i.e., drug alone, without any excipients, was examined for scale-up bottle filling and subsequent reconstitution.

## CCOC(=O)[C@H](CCc1ccccc1)N[C@@H](C)C(=O)N1CCC[C@H]1C(=O)O [neat enalapril, enalapril]
  Reconstitution, visual observation of dissolution: did not dissolve
